Starred links: 1 amine or outer side, 2 acyl side, 3 side chain; linkers in the order of their positions; H or OH if unused. Positions of bridges follow the written chain, without caps; N, C: chain ends. Non-standard residues stand in square brackets, D forms with d. Residues, ends and D or L forms follow the SMILES beside them. *: point of attachment. Ala(1-amidino-4-piperidyl) = N=C(N)N1CCC(C[C@H](N)C(=O)O)CC1; Phe(Nα-CONH2) = NC(=O)N[C@@H](Cc1ccccc1)C(=O)*; Phe(3-Cl) = N[C@@H](Cc1cccc(Cl)c1)C(=O)O; Phe(4-Cl) = N[C@@H](Cc1ccc(Cl)cc1)C(=O)O; X3 = O=C([C@H](CCNC1=NCCN1)N[*:1])[*:2]; Phe(4-F) = N[C@@H](Cc1ccc(F)cc1)C(=O)O; Bta = N[C@@H](Cc1csc2ccccc12)C(=O)O; Hyp = O=C(O)[C@@H]1C[C@@H](O)CN1; d(hLeu) = CC(C)CC[C@@H](N)C(=O)O; dCha = N[C@H](CC1CCCCC1)C(=O)O; Aic = NC1(C(=O)O)Cc2ccccc2C1; Nle = CCCC[C@H](N)C(=O)O; Orn = NCCC[C@H](N)C(=O)O; Aze = O=C(O)[C@@H]1CCN1

In the experiment the target is T1, human C5aR(CD88) (Homo sapiens, UniProt P21730).
T1 construct: expressed in transfected cells; host or cells: rat basophilic leukemia cells (RBL)
T1 sequence (P21730 1-350): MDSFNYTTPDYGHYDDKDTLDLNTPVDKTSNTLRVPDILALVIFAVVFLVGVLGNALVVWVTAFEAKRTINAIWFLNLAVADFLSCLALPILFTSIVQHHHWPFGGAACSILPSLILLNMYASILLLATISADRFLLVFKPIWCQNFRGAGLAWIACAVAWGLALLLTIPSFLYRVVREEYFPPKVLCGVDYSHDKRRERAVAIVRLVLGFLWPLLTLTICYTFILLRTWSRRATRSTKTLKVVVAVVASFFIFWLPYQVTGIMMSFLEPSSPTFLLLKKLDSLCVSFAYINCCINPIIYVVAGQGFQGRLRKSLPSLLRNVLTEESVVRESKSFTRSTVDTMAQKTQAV
The experiment can be described thus: Determination of the IC50 value in an enzyme release assay (functional assay, antagonistic activity). It is filed as cell-based. Conditions: antagonistic activity; IC50 group in enzyme release assay, RBL cells expressing human C5aR(CD88); read-out: activity (group).
Regarding `CC(=O)N[C@@H](Cc1ccccc1)C(=O)N[C@@H](CCCN)C(=O)N1C[C@H](O)C[C@H]1C(=O)N[C@H](CC1CCCCC1)C(=O)N[C@@H](Cc1c[nH]c2ccccc12)C(=O)N[C@@H](Cc1ccccc1)C(N)=O` [Compound 93, Ac-Phe-Orn-Hyp-cha-Trp-Phe-NH2] (Ac-F[Orn][Hyp][dCha]WF-NH2), the IC50 fell in the range of 200 to 2000 nM.

With `CC(=O)N[C@@H](Cc1ccccc1)C(=O)N[C@@H](CCCN)C(=O)N1CC[C@H]1C(=O)N[C@H](CC1CCCCC1)C(=O)N[C@@H](Cc1ccc(F)cc1)C(=O)N[C@@H](Cc1ccccc1)C(N)=O` [Compound 99, Ac-Phe-Orn-Aze-cha-Pff-Phe-NH2] (Ac-F[Orn][Aze][dCha][Phe(4-F)]F-NH2), the IC50 lay in the range of 50 to 200 nM. The figure for `CC(=O)N[C@@H](Cc1ccccc1)C(=O)N[C@@H](CCNC1=NCCN1)C(=O)N1CCC[C@H]1C(=O)N[C@H](CC1CCCCC1)C(=O)N[C@@H](Cc1csc2ccccc12)C(=O)N[C@@H](Cc1ccccc1)C(N)=O` [Compound 220, Ac-Phe-Fcn-Pro-cha-Bta-Phe-NH2] (Ac-F[X3]P[dCha][Bta]F-NH2) is 10 to 20 nM; for `CC(=O)N[C@@H](Cc1ccccc1)C(=O)N[C@H]1CCCNC(=O)[C@H](CC(C)C)NC(=O)[C@H](Cc2c[nH]c3ccccc23)NC(=O)[C@@H](CC2CCCCC2)NC(=O)[C@@H]2CCCN2C1=O` [Compound 193, Ac-Phe-[Orn-Pro-cha-Trp-Leu]] (Ac-F[Orn]P[dCha]WL; lactam 2-C) it is 50 to 200 nM; for `CCCC[C@@H]1NC(=O)[C@H](Cc2c[nH]c3ccccc23)NC(=O)[C@@H](CC2CCCCC2)NC(=O)[C@@H]2C[C@@H](O)CN2C(=O)[C@@H](NC(=O)[C@H](Cc2ccccc2)NC(C)=O)CCCNC1=O` [Compound 144, Ac-Phe-[Orn-Hyp-cha-Trp-Nle]] (Ac-F[Orn][Hyp][dCha]W[Nle]; lactam 2-C) it is 10 to 20 nM. The figure for `CC(=O)N[C@@H](Cc1ccccc1)C(=O)N[C@@H](CCCN)C(=O)N1CCC[C@H]1C(=O)N[C@H](CCC(C)C)C(=O)N[C@@H](Cc1csc2ccccc12)C(=O)NC1(C(N)=O)Cc2ccccc2C1` [Compound 273, Ac-Phe-Orn-Pro-hle-Bta-Aic-NH2] (Ac-F[Orn]P[d(hLeu)][Bta][Aic]-NH2) is 50 to 200 nM. The figure for `CC(=O)N[C@@H](Cc1ccccc1)C(=O)N[C@H]1CCCNC(=O)[C@H](CC2CCN(C(=N)N)CC2)NC(=O)[C@H](Cc2c[nH]c3ccccc23)NC(=O)[C@@H](CC2CCCCC2)NC(=O)[C@@H]2CCCN2C1=O` [compound 30] (Ac-F[Orn]P[dCha]W[Ala(1-amidino-4-piperidyl)]; lactam 2-C) is over 2000 nM; for `CC(=O)N[C@@H](Cc1ccccc1)C(=O)N[C@@H](CCCN)C(=O)N1CCC[C@H]1C(=O)N[C@H](CCC(C)C)C(=O)N[C@@H](Cc1cccc(Cl)c1)C(=O)N[C@@H](Cc1ccc(F)cc1)C(N)=O` [Compound 290, Ac-Phe-Orn-Pro-hle-Mcf-Pff-NH2] (Ac-F[Orn]P[d(hLeu)][Phe(3-Cl)][Phe(4-F)]-NH2) it is 50 to 200 nM. Take `CC(=O)N[C@@H](Cc1ccccc1)C(=O)N[C@@H](CCCN)C(=O)N1CC[C@H]1C(=O)N[C@H](CC1CCCCC1)C(=O)N[C@@H](Cc1ccc(Cl)cc1)C(=O)N[C@@H](Cc1ccccc1)C(N)=O` [Compound 81, Ac-Phe-Orn-Aze-cha-Pcf-Phe-NH2] (Ac-F[Orn][Aze][dCha][Phe(4-Cl)]F-NH2): the IC50 lay in the range of 200 to 2000 nM. Regarding `NCCC[C@H](NC(=O)[C@H](Cc1ccccc1)NC(N)=O)C(=O)N1CCC[C@H]1C(=O)N[C@H](CC1CCCCC1)C(=O)N[C@@H](Cc1csc2ccccc12)C(=O)N[C@@H](Cc1ccccc1)C(N)=O` [Compound 128, H2N—CO-Phe-Orn-Pro-cha-Bta-Phe-NH2] ({Phe(Nα-CONH2)}-[Orn]P[dCha][Bta]F-NH2), the IC50 was in the range of 20 to 50 nM.

As for `O=C1NCCC[C@H](NCc2ccccc2)C(=O)N2CCC[C@H]2C(=O)N[C@H](CC2CCCCC2)C(=O)N[C@@H](Cc2c[nH]c3ccccc23)C(=O)N[C@H]1Cc1ccccc1` [Compound 57, Ph-CH2-[Orn-Pro-cha-Trp-Phe]], the IC50 lay within 20 to 50 nM.

The values above are taken from US20080161232A1, “C5a Receptor Antagonist” (JERINI AG, priority 2005, published 2008).
